# Reference: US20260125411A1, “COMPOUND EMITTING LIGHT UNDER SPECIFIC CONDITIONS, AND METHOD FOR DETECTING CANCER STEM CELLS USING SAME” (Kyoto University, priority 2022, published 2026)
# What was measured:
# KATO-III cells = experiment: Observation with confocal microscope, KATO-III; assay type: cell-based, human; details: FDG 20 μM, ex 488 nm, detection 500-600 nm
# Experimental: (§1) Fluorescence imaging was performed using a confocal microscope LSM710 (Carl Zeiss AG). The excitation light used was at 488 nm (detection wavelength: 500-600 nm) and 633 nm (detection wavelength: 647-759 nm).
# (§2) The cells were seeded in a 35 mm micro-Dish (μ-Dish 35 mm, high, ibidi, Germany) and cultured for 24 hours, followed by washing with DMEM (for SUIT-2 cells, NIH3T3 cells, HUVEC cells) or RPMI-1640 (for KATO-3 cells) containing no phenol red and no FBS. A dye and Aldefluor™ (StemCell Technologies, Inc., Canada) or FDG (Sigma-Aldrich, USA) were dissolved in DMSO and diluted in the medium. The cells were treated with 2 mL of the medium containing the dye and Aldefluor™ or FDG and cultured in air containing 5% CO2 at 37° C. for one hour, followed by observation with the confocal microscope. The number of cells seeded was 10×10^5 for KATO-3 cells, and 8×10^5 for the other cell types. The final concentrations of CHO_βgal, Aldefluor™, and FDG were 20 μM, 1 μM, and 20 μM, respectively. The DMSO content was 2%. FIG. 4 and FIG. 5 show the measurement results.
# SUIT-2 cells = experiment: Observation with confocal microscope, SUIT-2; assay type: cell-based, human; details: SUIT-2, FDG 20 μM, ex 488 nm, detection 500-600 nm
# Experimental: as §1, §2
structure (smiles),measurement,setting,value
"O=C1OC2(c3ccc(O[C@@H]4O[C@H](CO)[C@H](O)[C@H](O)[C@H]4O)cc3Oc3cc(O[C@@H]4O[C@H](CO)[C@H](O)[C@H](O)[C@H]4O)ccc32)c2ccccc21 [FDG, fluorescein di-β-D-galactopyranoside]",emission in cells,KATO-III cells,emission was observed throughout the cells
same,emission in cells,SUIT-2 cells,emission was observed throughout the cells
